Source: ChEMBL document CHEMBL1149002, “Antineoplastic agents, 116. An evaluation of the marine ascidian Aplidium californicum” (1986)

How the values were obtained:
Type in all cases: functional
P388 [1] = experiment: In vivo antineoplastic activity against mouse P388 cells assessed as life extension at 46 to 92 ug/kg
P388 [2] = experiment: In vivo antineoplastic activity against mouse P388 cells assessed as life extension at 46 to 185 ug/kg
P388 [3] = experiment: In vivo antineoplastic activity against mouse P388 cells assessed as life extension at 3.1 mg/kg

## CCCC(=O)O[C@H]1/C(=C/C(=O)OC)C[C@@H]2C[C@H]([C@@H](C)O)OC(=O)C[C@H](O)C[C@@H]3C[C@H](OC(=O)CC(C)C)C(C)(C)[C@](O)(C[C@@H]4C/C(=C/C(=O)OC)C[C@H](/C=C/C(C)(C)[C@]1(O)O2)O4)O3 [BRYOSTATIN 4]
P388 [1]
  Activity: 62%

## COC(=O)/C=C1/C[C@H]2C[C@]3(O)O[C@H](C[C@@H](O)CC(=O)O[C@@H]([C@@H](C)O)C[C@H]4C/C(=C\C(=O)OC)[C@H](OC(C)=O)[C@@](O)(O4)C(C)(C)/C=C/[C@@H](C1)O2)C[C@H](OC(=O)CC(C)C)C3(C)C [BRYOSTATIN 5]
P388 [2]
  Activity: 45%

## CC(C)=CCc1cc(O)ccc1O [PRENYLHYDROQUINONE]
P388 [3]
  Activity: 38%
